Source: ChEMBL document CHEMBL3286290, “In vitro screening of pentamidine analogs against bacterial and fungal strains” (Bioorg Med Chem Lett, 2014)

Legend:
Micrococcus luteus [1] = experiment: Antibacterial activity against Micrococcus luteus ATCC 9341 assessed as growth inhibition by M7-A6 method; type: functional
Micrococcus luteus [2] = experiment: Antibacterial activity against Micrococcus luteus ATCC 10240 assessed as growth inhibition by M7-A6 method; type: functional
Bacillus subtilis = experiment: Antibacterial activity against Bacillus subtilis ATCC 6633 assessed as growth inhibition by M7-A6 method; type: functional
Bacillus cereus = experiment: Antibacterial activity against Bacillus cereus ATCC 11778 assessed as growth inhibition by M7-A6 method; type: functional
Staphylococcus aureus [3] = experiment: Antibacterial activity against Staphylococcus aureus ATCC 6538 assessed as growth inhibition by M7-A6 method; type: functional
Staphylococcus aureus [4] = experiment: Antibacterial activity against Staphylococcus aureus ATCC 6538P assessed as growth inhibition by M7-A6 method; type: functional
Escherichia coli = experiment: Antibacterial activity against Escherichia coli ATCC 8739 assessed as growth inhibition by M7-A6 method; type: functional
Pseudomonas aeruginosa [5] = experiment: Antibacterial activity against Pseudomonas aeruginosa ATCC 15442 assessed as growth inhibition by M7-A6 method; type: functional
Pseudomonas aeruginosa [6] = experiment: Antibacterial activity against Pseudomonas aeruginosa ATCC 9027 assessed as growth inhibition by M7-A6 method; type: functional
Candida albicans [7] = experiment: Antifungal activity against Candida albicans ATCC 10231 assessed as growth inhibition by M7-A6 method; type: functional
Candida albicans [8] = experiment: Antifungal activity against Candida albicans ATCC 2091 assessed as growth inhibition by M7-A6 method; type: functional
Candida parapsilosis = experiment: Antifungal activity against Candida parapsilosis ATCC 22019 assessed as growth inhibition by M7-A6 method; type: functional; conditions: Lodderomyces parapsilosis
Aspergillus brasiliensis = experiment: Antifungal activity against Aspergillus brasiliensis ATCC 16404 assessed as growth inhibition by M7-A6 method; type: functional
Saccharomyces cerevisiae = experiment: Antifungal activity against Saccharomyces cerevisiae ATCC 9763 assessed as growth inhibition by M7-A6 method; type: functional
Staphylococcus aureus [9] = experiment: Antibacterial activity against erythromycin, amikacin, clindamycin, ciprofloxacin, methicillin-resistant Staphylococcus aureus 15K/11 assessed as growth inhibition by M7-A6 method; type: functional
Staphylococcus aureus [10] = experiment: Antibacterial activity against penicillin, erythromycin, amikacin, clindamycin, ciprofloxacin, methicillin-resistant Staphylococcus aureus 495/11 assessed as growth inhibition by M7-A6 method; type: functional
Staphylococcus aureus [11] = experiment: Antibacterial activity against penicillin, erythromycin, amikacin, clindamycin, ciprofloxacin, methicillin-resistant Staphylococcus aureus 572/12 assessed as growth inhibition by M7-A6 method; type: functional
Staphylococcus aureus [12] = experiment: Antibacterial activity against penicillin, erythromycin, clindamycin, ciprofloxacin, methicillin-resistant Staphylococcus aureus 19K/11 assessed as growth inhibition by M7-A6 method; type: functional
Staphylococcus aureus [13] = experiment: Antibacterial activity against penicillin, erythromycin, amikacin, clindamycin, ciprofloxacin, methicillin-resistant Staphylococcus aureus 573/12 assessed as growth inhibition by M7-A6 method; type: functional
A549 [14] = experiment: Cytotoxicity against human A549 cells assessed as inhibition of cell viability after 48 hrs by MTT assay; type: cell-based; conditions: A549, 48 h
A549 [15] = experiment: Cytotoxicity against human A549 cells assessed as inhibition of cell viability after 72 hrs by MTT assay; type: cell-based; conditions: A549, 72 h
HeLa [16] = experiment: Cytotoxicity against human HeLa cells assessed as inhibition of cell viability after 48 hrs by MTT assay; type: cell-based
HeLa [17] = experiment: Cytotoxicity against human HeLa cells assessed as inhibition of cell viability after 72 hrs by MTT assay; type: cell-based
[18] = Cytotoxicity against human A549 cells assessed as cell viability at 200 ug/ml after 48 hrs by MTT assay; type: cell-based; conditions: read-out: Activity
[19] = Cytotoxicity against human A549 cells assessed as cell viability at 100 ug/ml after 48 hrs by MTT assay; type: cell-based; conditions: read-out: Activity
[20] = Cytotoxicity against human A549 cells assessed as cell viability at 50 ug/ml after 48 hrs by MTT assay; type: cell-based; conditions: read-out: Activity
[21] = Cytotoxicity against human A549 cells assessed as cell viability at 10 ug/ml after 48 hrs by MTT assay; type: cell-based; conditions: read-out: Activity
[22] = Cytotoxicity against human A549 cells assessed as cell viability at 200 ug/ml after 72 hrs by MTT assay; type: cell-based; conditions: read-out: Activity
[23] = Cytotoxicity against human A549 cells assessed as cell viability at 100 ug/ml after 72 hrs by MTT assay; type: cell-based; conditions: read-out: Activity
[24] = Cytotoxicity against human A549 cells assessed as cell viability at 50 ug/ml after 72 hrs by MTT assay; type: cell-based; conditions: read-out: Activity
[25] = Cytotoxicity against human A549 cells assessed as cell viability at 10 ug/ml after 72 hrs by MTT assay; type: cell-based; conditions: read-out: Activity
[26] = Cytotoxicity against human HeLa cells assessed as cell viability at 200 ug/ml after 48 hrs by MTT assay; type: cell-based; conditions: read-out: Activity
[27] = Cytotoxicity against human HeLa cells assessed as cell viability at 100 ug/ml after 48 hrs by MTT assay; type: cell-based; conditions: read-out: Activity
[28] = Cytotoxicity against human HeLa cells assessed as cell viability at 50 ug/ml after 48 hrs by MTT assay; type: cell-based; conditions: read-out: Activity
[29] = Cytotoxicity against human HeLa cells assessed as cell viability at 10 ug/ml after 48 hrs by MTT assay; type: cell-based; conditions: read-out: Activity
[30] = Cytotoxicity against human HeLa cells assessed as cell viability at 200 ug/ml after 72 hrs by MTT assay; type: cell-based; conditions: read-out: Activity
[31] = Cytotoxicity against human HeLa cells assessed as cell viability at 100 ug/ml after 72 hrs by MTT assay; type: cell-based; conditions: read-out: Activity
[32] = Cytotoxicity against human HeLa cells assessed as cell viability at 50 ug/ml after 72 hrs by MTT assay; type: cell-based; conditions: read-out: Activity
[33] = Cytotoxicity against human HeLa cells assessed as cell viability at 10 ug/ml after 72 hrs by MTT assay; type: cell-based; conditions: read-out: Activity

| SMILES | MIC (Micrococcus luteus [1]) [µM] | MIC (Micrococcus luteus [2]) [µM] | MIC (Bacillus subtilis) [µM] | MIC (Bacillus cereus) [µM] | MIC (Staphylococcus aureus [3]) [µM] | MIC (Staphylococcus aureus [4]) [µM] | MIC (Escherichia coli) [µM] | MIC (Pseudomonas aeruginosa [5]) [µM] | MIC (Pseudomonas aeruginosa [6]) [µM] | MIC (Candida albicans [7]) [µM] | MIC (Candida albicans [8]) [µM] | MIC (Candida parapsilosis) [µM] | MIC (Aspergillus brasiliensis) [µM] | MIC (Saccharomyces cerevisiae) [µM] | MIC (Staphylococcus aureus [9]) [µM] | MIC (Staphylococcus aureus [10]) [µM] | MIC (Staphylococcus aureus [11]) [µM] | MIC (Staphylococcus aureus [12]) [µM] | MIC (Staphylococcus aureus [13]) [µM] | IC50 (A549 [14]) [µg/mL] | further results |
| --- | --- | --- | --- | --- | --- | --- | --- | --- | --- | --- | --- | --- | --- | --- | --- | --- | --- | --- | --- | --- | --- |
| Cl.N=C(NC1CCCCC1)c1ccc(OCCSCCOc2ccc(C(=N)NC3CCCCC3)cc2)cc1 | 3.2 | 0.81 | 12 | 100 | 3.2 | 3.2 | 100 | > 1630 | > 1630 | 3.2 | 3.2 | 3.2 | 3.2 | 24 | 100 | 200 | 100 | 12 | 12 | > 100 | IC50 (A549 [15]): ≥ 50 µg/mL; IC50 (HeLa [16]): > 100 µg/mL; IC50 (HeLa [17]): > 100 µg/mL; viability at 48 h, 200 ug/ml [18]: 61.4%; viability at 48 h, 100 ug/ml [19]: 63.9%; viability at 48 h, 50 ug/ml [20]: 74.9%; viability at 48 h, 10 ug/ml [21]: 84.6%; viability at 72 h, 200 ug/ml [22]: 54.3%; viability at 72 h, 100 ug/ml [23]: 59.7%; viability at 72 h, 50 ug/ml [24]: 59.2%; viability at 72 h, 10 ug/ml [25]: 69.6%; viability at 48 h, 200 ug/ml [26]: 15.3%; viability at 48 h, 100 ug/ml [27]: 70.8%; viability at 48 h, 50 ug/ml [28]: 95.8%; viability at 48 h, 10 ug/ml [29]: 95.3%; viability at 72 h, 200 ug/ml [30]: 12.3%; viability at 72 h, 100 ug/ml [31]: 66.9%; viability at 72 h, 50 ug/ml [32]: 96.6%; viability at 72 h, 10 ug/ml [33]: 94.6% |
| Cl.c1cc(C2=NCCN2)ccc1OCCSCCOc1ccc(C2=NCCN2)cc1 | 9.8 | 9.8 | 240 | 980 | 980 | 980 | 980 | > 1960 | > 1960 | 240 | 240 | 29 | > 1960 | 980 | 980 | 1960 | 1960 | 1960 | 1960 | > 100 | IC50 (A549 [15]): ≥ 50 µg/mL; IC50 (HeLa [16]): > 100 µg/mL; IC50 (HeLa [17]): > 100 µg/mL; viability at 48 h, 200 ug/ml [18]: 16.5%; viability at 48 h, 100 ug/ml [19]: 52.6%; viability at 48 h, 50 ug/ml [20]: 63.6%; viability at 48 h, 10 ug/ml [21]: 80.3%; viability at 72 h, 200 ug/ml [22]: 10.2%; viability at 72 h, 100 ug/ml [23]: 34.4%; viability at 72 h, 50 ug/ml [24]: 49%; viability at 72 h, 10 ug/ml [25]: 59.1%; viability at 48 h, 200 ug/ml [26]: 16.5%; viability at 48 h, 100 ug/ml [27]: 53.5%; viability at 48 h, 50 ug/ml [28]: 68.5%; viability at 48 h, 10 ug/ml [29]: 76.9%; viability at 72 h, 200 ug/ml [30]: 10.7%; viability at 72 h, 100 ug/ml [31]: 41.8%; viability at 72 h, 50 ug/ml [32]: 68.1%; viability at 72 h, 10 ug/ml [33]: 67.7% |
| Cl.N=C(N)c1ccc(SCCOCCSc2ccc(C(=N)N)cc2)cc1 | 4.3 | 4.3 | 130 | 540 | 130 | 130 | 540 | 2150 | 1070 | 1070 | 1070 | 270 | 2150 | 540 | 1070 | 1070 | 270 | 130 | 130 | 50 | IC50 (A549 [15]): 10 µg/mL; IC50 (HeLa [16]): < 50 µg/mL; IC50 (HeLa [17]): < 50 µg/mL; viability at 48 h, 200 ug/ml [18]: 9.5%; viability at 48 h, 100 ug/ml [19]: 19.8%; viability at 48 h, 50 ug/ml [20]: 48.1%; viability at 48 h, 10 ug/ml [21]: 77.1%; viability at 72 h, 200 ug/ml [22]: 7.9%; viability at 72 h, 100 ug/ml [23]: 8.2%; viability at 72 h, 50 ug/ml [24]: 16.2%; viability at 72 h, 10 ug/ml [25]: 56.4%; viability at 48 h, 200 ug/ml [26]: 10.1%; viability at 48 h, 100 ug/ml [27]: 10.3%; viability at 48 h, 50 ug/ml [28]: 10.4%; viability at 48 h, 10 ug/ml [29]: 76.2%; viability at 72 h, 200 ug/ml [30]: 7.4%; viability at 72 h, 100 ug/ml [31]: 7.4%; viability at 72 h, 50 ug/ml [32]: 7.8%; viability at 72 h, 10 ug/ml [33]: 65.3% |
| CCCCNC(=N)c1ccc(OCCSCCOc2ccc(C(=N)NCCCC)cc2)cc1.Cl | 2.6 | 3.6 | 14 | 450 | 14 | 27 | 110 | > 1810 | > 1810 | 3.6 | 3.6 | 3.6 | 14 | 27 | 230 | 230 | 230 | 110 | 14 | > 100 | IC50 (A549 [15]): ≥ 50 µg/mL; IC50 (HeLa [16]): > 100 µg/mL; IC50 (HeLa [17]): > 100 µg/mL; viability at 48 h, 200 ug/ml [18]: 59.1%; viability at 48 h, 100 ug/ml [19]: 62.3%; viability at 48 h, 50 ug/ml [20]: 68.8%; viability at 48 h, 10 ug/ml [21]: 89.3%; viability at 72 h, 200 ug/ml [22]: 42.2%; viability at 72 h, 100 ug/ml [23]: 48.5%; viability at 72 h, 50 ug/ml [24]: 50.5%; viability at 72 h, 10 ug/ml [25]: 67.6%; viability at 48 h, 200 ug/ml [26]: 25.8%; viability at 48 h, 100 ug/ml [27]: 63.7%; viability at 48 h, 50 ug/ml [28]: 83.4%; viability at 48 h, 10 ug/ml [29]: 91.8%; viability at 72 h, 200 ug/ml [30]: 18.5%; viability at 72 h, 100 ug/ml [31]: 57.2%; viability at 72 h, 50 ug/ml [32]: 88.3%; viability at 72 h, 10 ug/ml [33]: 99% |
